The results in this text go back to US20260159512A1, “BCAT2 INHIBITORS” (AGIOS PHARMACEUTICALS, INC., priority 2021, published 2026).

What all share (details): average where tested multiple times
Experiment [1] deals with T1, BCAT2 (Homo sapiens, UniProt O15382).
T1 sequence (O15382 28-392): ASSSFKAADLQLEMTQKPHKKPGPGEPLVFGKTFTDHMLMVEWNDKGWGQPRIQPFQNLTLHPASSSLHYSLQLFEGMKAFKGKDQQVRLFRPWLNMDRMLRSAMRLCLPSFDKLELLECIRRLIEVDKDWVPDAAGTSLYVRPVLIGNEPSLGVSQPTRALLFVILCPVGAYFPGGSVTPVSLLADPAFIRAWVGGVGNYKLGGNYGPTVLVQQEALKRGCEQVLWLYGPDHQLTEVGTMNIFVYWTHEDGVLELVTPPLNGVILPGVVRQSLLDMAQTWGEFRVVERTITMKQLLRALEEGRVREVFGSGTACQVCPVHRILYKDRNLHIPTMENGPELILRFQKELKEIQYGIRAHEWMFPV
Nature of the experiment: BCAT2 in vitro enzyme inhibition assay (resazurin/diaphorase-coupled fluorescence). Format: biochemical. In short, it runs like this:
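Coupled fluorescence readout: glutamate formed from L-leucine/α-ketoglutarate transamination drives GDH/NAD/diaphorase reduction of resazurin (Ex 540/Em 590). Human BCAT2 was first exposed 1 h at room temperature to compound, top final 100 μM in 3-fold, 10-point series; substrate reaction ran 1 h before SDS quench, in technical duplicate with DMSO max and enzyme-free min controls.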
In general terms: Alamar Blue is a resazurin reagent that responds to reducing activity.

The next experiment deals with T2, hBCAT1 (Homo sapiens, UniProt P54687).
T2 sequence (P54687 1-386): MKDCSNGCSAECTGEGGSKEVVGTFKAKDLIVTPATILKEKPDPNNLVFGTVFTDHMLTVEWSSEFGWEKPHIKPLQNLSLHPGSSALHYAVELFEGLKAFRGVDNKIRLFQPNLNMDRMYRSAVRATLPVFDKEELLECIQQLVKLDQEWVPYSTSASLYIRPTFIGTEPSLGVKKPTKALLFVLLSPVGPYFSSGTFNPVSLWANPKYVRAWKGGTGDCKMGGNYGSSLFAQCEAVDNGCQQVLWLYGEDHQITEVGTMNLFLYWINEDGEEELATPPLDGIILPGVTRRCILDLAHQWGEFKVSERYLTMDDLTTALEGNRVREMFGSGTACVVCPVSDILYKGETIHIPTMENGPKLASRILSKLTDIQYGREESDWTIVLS
As to the kind of experiment: BCAT1 in vitro enzyme inhibition assay (resazurin/diaphorase-coupled fluorescence). Format: biochemical. The method, boiled down: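 Ten-point, 3-fold compound series (top final 100 μM, delivered 1:50 from 50× DMSO stocks) tested against hBCAT1. Inhibition detected via diaphorase-coupled resazurin fluorescence, duplicate wells, with values from repeated runs averaged.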

For experiment [2], the target named is T1, BCAT2. As to the kind of experiment: BCAT2 in vitro cell inhibition using engineered A549 cells (KMV cell assay, 13C6-KMV by LC-MS/MS). Format: cell-based. On the set-up: The result was an engineered A549 cell line that expressed endogenous BCAT2; endogenous in cells; host or cells: A549 cells with MUT and BCAT1 knocked out by CRISPR/CAS9.

Bounds are passed on as bounds.

The term IC50 denotes the point on the concentration scale where inhibition reaches its midpoint. Consider `CO[C@H]1C[C@H](NC(=O)c2ncc(Cl)s2)C[C@H](n2c(CC(C)C)nc3cnc(-c4nc(C)co4)cc32)C1` [Example 409, 5-chloro-N-((1R,3S,5S)-3-(2-isobutyl-6-(4-methyloxazol-2-yl)-1H-imidazo[4,5-c]pyridin-1-yl)-5-methoxycyclohexyl)thiazole-2-carboxamide], for which the IC50 against BCAT2 [1] is ≤ 100 nM; at hBCAT1 it was 500 to 1000 nM; at BCAT2 [2] it was 100 to 500 nM.
For `CO[C@H]1C[C@H](NC(=O)c2ncc(Cl)s2)C[C@H](n2c(CC(C)C)nc3cnc(-n4cncn4)cc32)C1` [Example 417, 5-chloro-N-((1R,3S,5S)-3-(2-isobutyl-6-(1H-1,2,4-triazol-1-yl)-1H-imidazo[4,5-c]pyridin-1-yl)-5-methoxycyclohexyl)thiazole-2-carboxamide] the same measures were 100 to 500 nM, 1000 to 5000 nM and > 1000 nM.
Taken in the same sequence, the figures for `CO[C@H]1C[C@H](NC(=O)c2ncc(Cl)s2)C[C@H](n2c(CC(C)C)nc3cnc(-n4nccn4)cc32)C1` [Example 421, 5-chloro-N-((1R,3S,5S)-3-(2-isobutyl-6-(2H-1,2,3-triazol-2-yl)-1H-imidazo[4,5-c]pyridin-1-yl)-5-methoxycyclohexyl)thiazole-2-carboxamide] were ≤ 100 nM, 500 to 1000 nM and 100 to 500 nM.
For `CO[C@H]1C[C@H](NC(=O)c2ncc(Cl)s2)C[C@H](n2c(-c3ccccc3F)nc3cnc(N4CCC[C@H]4CO)cc32)C1` [Example 429, 5-chloro-N-((1R,3S,5S)-3-(2-(2-fluorophenyl)-6-((S)-2-(hydroxymethyl)pyrrolidin-1-yl)-1H-imidazo[4,5-c]pyridin-1-yl)-5-methoxycyclohexyl)thiazole-2-carboxamide], the IC50 against BCAT2 [1] is ≤ 100 nM; against hBCAT1 it was 500 to 1000 nM; against BCAT2 [2], ≤ 100 nM.
With `CO[C@H]1C[C@H](NC(=O)c2ncc(Cl)s2)C[C@H](n2c(CC(C)C)nc3cnc(-c4ncccn4)cc32)C1` [Example 435, 5-chloro-N-((1R,3S,5S)-3-(2-isobutyl-6-(pyrimidin-2-yl)-1H-imidazo[4,5-c]pyridin-1-yl)-5-methoxycyclohexyl)thiazole-2-carboxamide], the IC50 is ≤ 100 nM on BCAT2 [1], < 500 nM against hBCAT1 and ≤ 100 nM at BCAT2 [2].
As to `O=C(N[C@@H]1C[C@H](n2c(-c3ccccc3F)nc3cnc(-c4nc[nH]n4)cc32)CS(=O)(=O)C1)c1ccc(Cl)s1` [Example 456, 5-chloro-N-((3R,5S)-5-(2-(2-fluorophenyl)-6-(1H-1,2,4-triazol-3-yl)-1H-imidazo[4,5-c]pyridin-1-yl)-1,1-dioxidotetrahydro-2H-thiopyran-3-yl)thiophene-2-carboxamide], the IC50 against BCAT2 [1] is ≤ 100 nM; against hBCAT1, < 500 nM; against BCAT2 [2] it was > 1000 nM.
For `CS(=O)(=O)N1C[C@H](NC(=O)c2ccc(Cl)s2)C[C@H](n2c(-c3ccccc3F)nc3cnc(-c4nc[nH]n4)cc32)C1` [Example 458, 5-chloro-N-((3R,5S)-5-(2-(2-fluorophenyl)-6-(1H-1,2,4-triazol-3-yl)-1H-imidazo[4,5-c]pyridin-1-yl)-1-(methylsulfonyl)piperidin-3-yl)thiophene-2-carboxamide] the same measures were ≤ 100 nM, < 500 nM and ≤ 100 nM.
Consider `CS(=O)(=O)N1C[C@H](NC(=O)c2ncc(Cl)s2)C[C@H](n2c(-c3ccccc3F)nc3cnc(-c4nc[nH]n4)cc32)C1` [Example 460, 5-chloro-N-((3R,5S)-5-(2-(2-fluorophenyl)-6-(1H-1,2,4-triazol-3-yl)-1H-imidazo[4,5-c]pyridin-1-yl)-1-(methylsulfonyl)piperidin-3-yl)thiazole-2-carboxamide], for which the IC50 is ≤ 100 nM against BCAT2 [1], < 500 nM against hBCAT1 and ≤ 100 nM on BCAT2 [2].
As for `COC(=O)N1C[C@H](NC(=O)c2ccc(Cl)s2)C[C@H](n2c(-c3ccccc3F)nc3cnc(-c4nc[nH]n4)cc32)C1` [Example 462, methyl (3R,5S)-3-(5-chlorothiophene-2-carboxamido)-5-(2-(2-fluorophenyl)-6-(1H-1,2,4-triazol-3-yl)-1H-imidazo[4,5-c]pyridin-1-yl)piperidine-1-carboxylate], the IC50 against BCAT2 [1] was ≤ 100 nM; against hBCAT1 it was < 500 nM; against BCAT2 [2] it was ≤ 100 nM.
